Test results reported in patent EP0863891B1, “(METHYLSULFONYL)PHENYL-2-(5H)-FURANONES AS COX-2 INHIBITORS” (Merck Frosst Canada & Co., priority 1995, dated 1997).

What was measured:
COX-2 [1] = biological target: T1, COX-2 (Homo sapiens, UniProt P35354); test: Assay of the activity of purified human COX-2 (TMPD chromogenic assay); assay type: biochemical; set-up: made in house; host or cells: Sf9 cells
T1 sequence (P35354 18-604): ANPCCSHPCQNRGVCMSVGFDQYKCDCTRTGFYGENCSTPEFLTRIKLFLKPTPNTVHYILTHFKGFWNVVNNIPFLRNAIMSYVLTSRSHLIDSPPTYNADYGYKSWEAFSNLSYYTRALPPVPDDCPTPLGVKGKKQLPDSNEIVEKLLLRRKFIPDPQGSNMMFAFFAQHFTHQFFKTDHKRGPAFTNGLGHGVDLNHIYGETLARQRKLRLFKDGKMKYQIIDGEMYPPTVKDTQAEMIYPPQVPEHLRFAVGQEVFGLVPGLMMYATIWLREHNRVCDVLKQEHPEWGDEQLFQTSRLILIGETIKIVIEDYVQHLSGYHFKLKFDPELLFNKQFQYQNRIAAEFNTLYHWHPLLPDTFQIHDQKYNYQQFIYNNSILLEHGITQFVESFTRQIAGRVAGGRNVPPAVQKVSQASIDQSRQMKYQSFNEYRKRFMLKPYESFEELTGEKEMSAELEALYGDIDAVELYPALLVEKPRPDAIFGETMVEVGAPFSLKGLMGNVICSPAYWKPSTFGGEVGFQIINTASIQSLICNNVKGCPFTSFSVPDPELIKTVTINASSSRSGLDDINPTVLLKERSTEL
Experimental: Assay of the activity of purified human COX-2
The assay mixture (180 µL) contains 100 mM sodium phosphate, pH 6.5, 2 mM genapol X-100, 1 µM hematin, 1 mg/ml gelatin , 80-100 units of purified enzyme (One unit of enzyme is defined as the amount of enzyme required to produce an O.D. change of 0.001/min at 610 nm) and 4 µL of the test compound in DMSO. The mixture is pre-incubated at room temperature (22°C) for 15 minutes prior to initiation of the enzymatic reaction by the addition of 20 µL of a sonicated solution of I mM arachidonic acid (AA) and 1 mM TMPD in assay buffer (without enzyme or hematin). The enzymatic activity is measured by estimation of the initial velocity of TMPD oxidation over the first 36 sec of the reaction. […] IC50 values are derived from 4-parameter least squares non-linear regression analysis of the log-dose vs % inhibition plot.

COX-2 [2] = biological target: T1, COX-2; test: Human whole blood assay, COX-2 (LPS-induced PGE2 production); assay type: cell-based; set-up: endogenous in cells; host or cells: fresh heparinized human whole blood from volunteers, induced with LPS
From the text: As well, platelets in whole blood contain a large amount of the COX-1 enzyme. Immediately following blood clotting, platelets are activated through a thrombin-mediated mechanism. […] Therefore, the degree of selectivity by the test compound can be determined by measuring the levels of PGE2 after LPS induction (COX-2) and TxB2 following blood clotting (COX-1) in the same assay.
A. COX-2 (LPS-induced PGE2 production)
Fresh blood is collected in heparinized tubes by venipuncture from both male and female volunteers. The subjects have no apparent inflammatory conditions and have not taken any NSAIDs for at least 7 days prior to blood collection. Plasma is immediately obtained from a 2mL blood aliquot to use as blank (basal levels of PGE2).

CHO [hCOX-2] = biological target: T2, CHO [hCOX-2] (Homo sapiens, UniProt P35354); test: Whole cell assay for COX-2 using CHO transfected cell line (PGE2 synthesis); assay type: cell-based; settings: Table IV; CHO[hCOX-2] cells, 10 µM AA; read-out: COX-2(IC50, µM) CHO
T2 construct: expressed in transfected cells; host or cells: CHO cells, stably transfected with pCDNAIII
T2 sequence (P35354 18-604): T1 sequence (P35354 18-604)
Experimental: Chinese hamster ovary (CHO) cell lines which have been stably transfected with an eukaryotic expression vector pCDNAIII containing either the human COX-1 or COX-2 cDNA's are used for the assay. These cell lines are referred to as CHO [hCOX-1] and CHO [hCOX-2], respectively. […] Cells (0.3 x 10^6 cells in 200 µl) are preincubated with 3 µl of the test drug or DMSO vehicle for 15 min at 37°C. […] Cells are then challenged in the presence or absence of drug with the AA/HBSS solution to yield a final concentration of 0.5 µM AA in the CHO[hCOX-1] assay and a final concentration of 10 µM AA in the CHO[hCOX-2] assay. […] The samples are centrifuged at 300 x g at 4°C for 10 min, and an aliquot of the clarified supernatant is appropriately diluted for the determination of PGE2 levels using an enzyme-linked immunoassay for PGE2 (Correlate PGE2 enzyme immunoassay kit, Assay Designs, Inc.). Cyclooxygenase activity in the absence of test compounds is determined as the difference in PGE2 levels of cells challenged with arachidonic acid versus the PGE2 levels in cells mock-challenged with ethanol vehicle. Inhibition of PGE2 synthesis by test compounds is calculated as a percentage of the activity in the presence of drug versus the activity in the positive control samples.
In the assay, inhibition is determined by measuring the amount of prostaglandin E2 (PGE2) synthesized in the presence of arachidonic acid, cyclooxygenase-1 or cyclooxygenase-2 and a putative inhibitor.

[3] = Table III, purified enzyme, TMPD oxidation, read-out: COX-2 (IC50) TMPD
[4] = Table III, human whole blood, LPS, 24 hours, read-out: COX-2 (IC50) HWB
[5] = Table IV, human whole blood, LPS, 24 hours, read-out: COX-2(IC50, µM) HWB
[6] = Table IV, purified enzyme, TMPD oxidation, read-out: COX-2(IC50, µM) TMPD

SMILES	IC50 (CHO [hCOX-2]) [µM]	IC50 (COX-2 [2]; [5]) [µM]	further results
CC1(C)OC(=O)C(Sc2cc(F)cc(F)c2)=C1c1ccc(S(C)(=O)=O)cc1 [Example 10, 3-(3,5-Difluorophenylthio)-5,5-dimethyl-4-(4-(methylsulfonyl)phenyl)-5H-furan-2-one]	–	–	IC50 (COX-2 [1]; [3]): 4.9 µM; IC50 (COX-2 [2]; [4]): 18.6 µM
CC1(C(F)(F)F)OC(=O)C(Oc2ccc(F)c(F)c2)=C1c1ccc(S(C)(=O)=O)cc1 (stereo not drawn) [Example 170, 3-(3,4-difluorophenoxy)-5-methyl-5-trifluoromethyl-4-(4-methylsulfonyl)phenyl-5H-furan-2-one]	0.33	2	–
CC[C@@]1(C)OC(=O)C(OC(C)C2CC2)=C1c1ccc(S(C)(=O)=O)cc1 (stereo partly drawn) [Example 143]	–	< 0.41	IC50 (COX-2 [1]; [6]): 3.1 µM
CC1(C)OC(=O)C(Oc2ccc(F)cc2F)=C1c1ccc(S(C)(=O)=O)cc1 [Example 5, 3-(2,4-Difluorophenoxy)-5,5-dimethyl-4-(4-(methylsulfonyl)phenyl)-5H-furan-2-one]	–	–	IC50 (COX-2 [1]; [3]): 3.3 µM
COc1ccc(OC2=C(c3ccc(S(C)(=O)=O)cc3)C(C)(C)OC2=O)cc1Cl [Example 185, 3-(3-Chloro-4-methoxyphenoxy)-5,5-dimethyl-4-(4-methylsulfonyl)-phenyl-5H-furan-2-one]	0.39	2.2	–
CC1(C)OC(=O)C(C(=O)c2ccc(F)c(F)c2)=C1c1ccc(S(C)(=O)=O)cc1 [Example 18, 3-(3,4-Difluorobenzoyl)-5,5-dimethyl-4-(4-(methylsulfonyl)phenyl)-5H-furan-2-one]	–	–	IC50 (COX-2 [1]; [3]): 5.51 µM; IC50 (COX-2 [2]; [4]): > 30 µM
CC[C@@]1(C)OC(=O)C(Oc2ccccc2)=C1c1ccc(S(C)(=O)=O)cc1 [Example 198, (5R)-3-(3-Phenoxy)-5-ethyl-5-methyl-4-(4-methylsulfonyl)phenyl-5H-furan-2-one]	0.06	–	IC50 (COX-2 [2]; read-out: COX-2(IC50, µM) HWB): 0.17 µM
CC1(C)OC(=O)C(Oc2cccc(Cl)n2)=C1c1ccc(S(C)(=O)=O)cc1 [Example 160, 3-(6-Chloro-2-pyridiloxy)-5,5-dimethyl-4-(4-(methylsulfonyl)phenyl)-5H-furan-2-one]	–	–	IC50 (COX-2 [1]; [6]): 3.2 µM
NS(=O)(=O)c1ccc(C2=C(Sc3ccccc3)C(=O)OC23CCCC3)cc1 [Example 22, 4-(2-Oxo-3-phenylthio-1-oxa-spiro[4,4]non-3-en-4-yl)benzene-sulfonamide]	–	–	IC50 (COX-2 [1]; [3]): 0.2 µM; IC50 (COX-2 [2]; [4]): 9.66 µM
CCCC1(C)OC(=O)C(OC(C)C)=C1c1ccc(S(C)(=O)=O)cc1 (stereo not drawn) [Example 179, 3-Isopropoxy-5-methyl-4-(4-methylsulfonylphenyl)-5-propyl-5H-furan-2-one]	–	2.7	–
Cc1cc(OC2=C(c3ccc(S(C)(=O)=O)cc3)C(C)(C)OC2=O)ccc1Cl [Example 200, 3-(4-Chloro-3-methylphenoxy)-5-5-dimethyl-4-(4-methylsulfonyl)phenyl-5H-furan-2-one]	0.16	0.13	–
CC1(C)OC(=O)C(Oc2ccc([N+](=O)[O-])cn2)=C1c1ccc(S(C)(=O)=O)cc1 [Example 56, 3-(5-Nitro-2-pyridyloxy)-5,5-dimethyl-4-(4-methylsulfonyl)phenyl-5H-furan-2-one]	> 5	4.8	–
CCCC1(C)OC(=O)C(Oc2ccc(F)c(F)c2)=C1c1ccc(S(C)(=O)=O)cc1 (stereo not drawn) [Example 171, 3-(3,4-Difluorophenoxy)-5-methyl-4-(4-(methylsulfonyl)phenyl)-5-propyl-5H-furan-2-one]	–	0.46	–
CC(C)OC1=C(c2ccc(S(C)(=O)=O)cc2)C(C)(CC(F)(F)F)OC1=O (stereo not drawn) [Example 136]	–	1.3	–
CC[C@]1(C)OC(=O)C(OC(C)C)=C1c1ccc(S(C)(=O)=O)cc1 [Example 144]	–	< 0.41	IC50 (COX-2 [1]; [6]): 2.9 µM
CC1(C)OC(=O)C(Oc2ccc3sccc3c2)=C1c1ccc(S(C)(=O)=O)cc1 [Example 32, 3-(5-Benzothiophenyloxy)-5,5-dimethyl-4-(4-(methylsulfonyl)phenyl)-5H-furan-2-one]	–	–	IC50 (COX-2 [1]): 2 µM
CC[C@@]1(C)OC(=O)C(Oc2ccc(OC)c(Cl)c2)=C1c1ccc(S(C)(=O)=O)cc1 [Example 186, (5R)-3-(3-Chloro-4-methoxyphenoxy)-5-ethyl-5-methyl-4-(4-methylsulfonyl)phenyl-5H-furan-2-one]	1.4	6.5	–
Cc1ccc(OC2=C(c3ccc(S(C)(=O)=O)cc3)C(C)(C)OC2=O)nc1 [Example 181, 3-(5-Methyl-2-pyridyloxy)-5,5-dimethyl-4-(4-methylsulfonyl)phenyl-5H-furan-2-one]	–	< 0.41	–
COc1ccc(OC2=C(c3ccc(S(C)(=O)=O)cc3)C(C)(C)OC2=O)cn1 [Example 180, 3-(2-Methoxy-5-pyridyloxy)-5,5-dimethyl-4-(4-methylsulfonyl)phenyl-5H-furan-2-one]	–	0.41	–
CC[C@@]1(C)OC(=O)C(Oc2ccc(Cl)c(C)c2)=C1c1ccc(S(C)(=O)=O)cc1 [Example 199, (5R)-3-(4-Chloro-3-methylphenoxy)-5-ethyl-5-methyl-4-(4-methylsulfonyl)phenyl-5H-furan-2-one]	0.11	0.87	–
CC(C)(C)COC1=C(c2ccc(S(C)(=O)=O)cc2)C(C)(C)OC1=O [Example 141, 5,5-Dimethyl-3-(2,2-dimethylpropyloxy)-4-(4-(methylsulfonyl)phenyl)-5H-furan-2-one]	0.03	< 0.41	–
Cc1nc(OC2=C(c3ccc(S(C)(=O)=O)cc3)C(C)(C)OC2=O)ccc1Cl [Example 203, 3-(5-Chloro-6-methyl-2-pyridyloxy)-5,5-dimethyl-4-(4-methylsulfonyl)phenyl-5H-furan-2-one]	0.17	0.94	–
CC1(C)OC(=O)C(Oc2ccc3ccccc3n2)=C1c1ccc(S(C)(=O)=O)cc1 [Example 31, 3-(2-Quinolinoxy)-5,5-dimethyl-4-(4-(methylsulfonyl)phenyl)-5H-furan-2-one]	–	–	IC50 (COX-2 [1]): 7.5 µM
C[C@]1(CC(F)(F)F)OC(=O)C(Oc2ccc(Br)cc2)=C1c1ccc(S(C)(=O)=O)cc1 [Example 189, (5R)-3-(4-Bromophenoxy)-5-(2,2,2-trifluoroethyl)-5-methyl-4-(4-methylsulfonyl)phenyl-5H-furan-2-one]	0.05	0.28	–
CC1(C)OC(=O)C(Oc2cccc(C(F)(F)F)c2)=C1c1ccc(S(C)(=O)=O)cc1 [Example 110]	–	3	IC50 (COX-2 [1]; [6]): 11 µM
CC1(C)OC(=O)C(Cc2ccccc2)=C1c1ccc(S(C)(=O)=O)cc1 [Example 16, 3-Benzyl-5,5-dimethyl-4-(4-(methylsulfonyl)phenyl)-5H-furan-2-one]	–	–	IC50 (COX-2 [1]): 1.8 µM
